This note sets out measurements from ChEMBL document CHEMBL2407067, “Pyridone-conjugated monobactam antibiotics with gram-negative activity” (J Med Chem, 2013).

Structures are written as SMILES. Values after ≈ are worked out from the molar mass of the structure shown.

Series [1] has as its system Escherichia coli. Nature of the series: Antibacterial activity against Escherichia coli expressing defined beta-lactamase by broth microdilution method. The format is functional.
The nature of series [2]: Inhibition of PBP3 in Pseudomonas aeruginosa ATCC 27853 after 20 mins by fluorescence assay.
The nature of series [3]: Fraction unbound in mouse plasma. Type of series: ADME, cell-free.
Series [4] relates to Pseudomonas aeruginosa. Kind of series: Antibacterial activity against PirA receptor-deficient Pseudomonas aeruginosa PAO1 in iron-chelated Muller-Hinton broth medium by broth microdilution method. Type of series: functional.
Series [5] concerns Pseudomonas aeruginosa. Kind of series: Antibacterial activity against Pseudomonas aeruginosa expressing metallo-beta-lactamase by broth microdilution method. The format is functional.
Series [6] concerns Acinetobacter baumannii. Nature of the series: Antibacterial activity against Acinetobacter baumannii AB-3167 by broth microdilution method. The format is functional.
Series [7] relates to Pseudomonas aeruginosa. Nature of the series: Antibacterial activity against FpvA receptor-deficient Pseudomonas aeruginosa PAO1 in Muller-Hinton broth medium by broth microdilution method. The format is functional.
Series [8] deals with Escherichia coli. Nature of the series: Antibacterial activity against Escherichia coli expressing CTX-M by broth microdilution method. Type of series: functional.
Series [9] concerns Pseudomonas aeruginosa. Nature of the series: Antibacterial activity against PirA receptor-deficient Pseudomonas aeruginosa PAO1 in Muller-Hinton broth medium by broth microdilution method. The format is functional.
Series [10] has as its system Pseudomonas aeruginosa. Kind of series: Ratio of MIC for PiuA/PirA receptor-deficient Pseudomonas aeruginosa PAO1 to MIC for Pseudomonas aeruginosa PAO1 in Muller-Hinton broth medium by broth microdilution method. Type of series: functional.
In series [11] the test system is Klebsiella pneumoniae. Nature of the series: Antibacterial activity against Klebsiella pneumoniae 1000-02 by broth microdilution method. Type of series: functional.
In series [12] the test system is Pseudomonas aeruginosa. Kind of series: Antibacterial activity against PiuA/FpvA receptor-deficient Pseudomonas aeruginosa PAO1 in Muller-Hinton broth medium by broth microdilution method. Type of series: functional.
In series [13] the test system is Pseudomonas aeruginosa. Nature of the series: Ratio of MIC for PiuA/PirA receptor-deficient Pseudomonas aeruginosa PAO1 to MIC for Pseudomonas aeruginosa PAO1 in iron-chelated Muller-Hinton broth medium by broth microdilution method. The format is functional.
Series [14] relates to Pseudomonas aeruginosa. Nature of the series: Antibacterial activity against PiuA/FpvA receptor-deficient Pseudomonas aeruginosa PAO1 in iron-chelated Muller-Hinton broth medium by broth microdilution method. Type of series: functional.
Series [15] in a line: Plasma clearance in Wistar Han rat at 1 mg/kg, iv by LC/MS/MS analysis. Also on record: dose 1 mg/kg, route intravenous. Type of series: ADME, organism-based.
The nature of series [16]: Inhibition of PBP2 in Pseudomonas aeruginosa ATCC 27853 after 20 mins by fluorescence assay.
Series [17] can be described thus: Fraction unbound in human plasma. The format is ADME, cell-free.
Series [18] relates to Pseudomonas aeruginosa. Kind of series: Antibacterial activity against FptA receptor-deficient Pseudomonas aeruginosa PAO1 in iron-chelated Muller-Hinton broth medium by broth microdilution method. Type of series: functional.
In series [19] the test system is Klebsiella pneumoniae. Kind of series: Antibacterial activity against Klebsiella pneumoniae 1487-07 by broth microdilution method. The format is functional.
Series [20] relates to Pseudomonas aeruginosa. Nature of the series: Antibacterial activity against PiuA receptor-deficient Pseudomonas aeruginosa PAO1 in Muller-Hinton broth medium by broth microdilution method. The format is functional.
Series [21] deals with Pseudomonas aeruginosa. Kind of series: Antibacterial activity against PiuA/FptA receptor-deficient Pseudomonas aeruginosa PAO1 in Muller-Hinton broth medium by broth microdilution method. Type of series: functional.
Series [22] in a line: Inhibition of PBP1b in Pseudomonas aeruginosa ATCC 27853 after 20 mins by fluorescence assay.
Series [23] relates to Escherichia coli. Kind of series: Antibacterial activity against Escherichia coli expressing ESBL by broth microdilution method. Type of series: functional.
Series [24] deals with Pseudomonas aeruginosa. Kind of series: microbe, parasite or virus in culture. Particulars: 1091-05.
Description: Antibacterial activity against Pseudomonas aeruginosa 1091-05 by broth microdilution method
The subject of series [25] is Klebsiella pneumoniae. Nature of the series: Antibacterial activity against Klebsiella pneumoniae expressing ESBL by broth microdilution method. Type of series: functional.
Series [26] has as its system Pseudomonas aeruginosa. Kind of series: Ratio of MIC for PiuA receptor-deficient Pseudomonas aeruginosa PAO1 to MIC for Pseudomonas aeruginosa PAO1 in Muller-Hinton broth medium by broth microdilution method. Type of series: functional.
In series [27] the test system is Pseudomonas aeruginosa. Kind of series: Antibacterial activity against PiuA/PirA receptor-deficient Pseudomonas aeruginosa PAO1 in Muller-Hinton broth medium by broth microdilution method. The format is functional.
For series [28], the system named is Acinetobacter sp. Nature of the series: Antibacterial activity against Acinetobacter spp. by broth microdilution method. The format is functional.
A short description of series [29]: Inhibition of PBP1a in Pseudomonas aeruginosa ATCC 27853 after 20 mins by fluorescence assay.
Series [30] deals with Pseudomonas aeruginosa. Kind of series: Antibacterial activity against PiuA/PirA receptor-deficient Pseudomonas aeruginosa PAO1 in iron-chelated Muller-Hinton broth medium by broth microdilution method. The format is functional.
The subject of series [31] is Rattus norvegicus. Kind of series: Intrinsic clearance in Wistar Han rat at 1 mg/kg, iv by LC/MS/MS analysis. Particulars: in vivo. On the set-up: dose 1 mg/kg, route intravenous. The format is ADME, organism-based.
Series [32] deals with Pseudomonas aeruginosa. Kind of series: Antibacterial activity against PiuA receptor-deficient Pseudomonas aeruginosa PAO1 in iron-chelated Muller-Hinton broth medium by broth microdilution method. Type of series: functional.
Series [33] concerns Pseudomonas aeruginosa. Kind of series: Antibacterial activity against Pseudomonas aeruginosa from cystic fibrosis patients by broth microdilution method. Type of series: functional.
In series [34] the test system is Pseudomonas aeruginosa. Nature of the series: Antibacterial activity against PiuA/FptA receptor-deficient Pseudomonas aeruginosa PAO1 in iron-chelated Muller-Hinton broth medium by broth microdilution method. Type of series: functional.
The subject of series [35] is Pseudomonas aeruginosa. Nature of the series: Antibacterial activity against FptA receptor-deficient Pseudomonas aeruginosa PAO1 in Muller-Hinton broth medium by broth microdilution method. The format is functional.
In series [36] the test system is Pseudomonas aeruginosa. Kind of series: Antibacterial activity against Pseudomonas aeruginosa 1042-06 by broth microdilution method. Type of series: functional.
Series [37] relates to Pseudomonas aeruginosa. Nature of the series: Antibacterial activity against Pseudomonas aeruginosa PAO1 in Muller-Hinton broth medium by broth microdilution method. The format is functional.
Series [38] has as its system Pseudomonas aeruginosa. Kind of series: Antibacterial activity against FpvA receptor-deficient Pseudomonas aeruginosa PAO1 in iron-chelated Muller-Hinton broth medium by broth microdilution method. The format is functional.
Series [39] deals with Klebsiella pneumoniae. Kind of series: Antibacterial activity against Klebsiella pneumoniae expressing KPC by broth microdilution method. The format is functional.
The nature of series [40]: Fraction unbound in rat plasma. Type of series: ADME, cell-free.
Series [41] concerns Klebsiella pneumoniae. Nature of the series: Antibacterial activity against Klebsiella pneumoniae expressing defined beta-lactamase by broth microdilution method. Type of series: functional.

As for `CC(C)(O/N=C(\C(=O)N[C@@H]1C(=O)N(S(=O)(=O)O)[C@@H]1CNC(=O)NCc1cc(=O)c(O)cn1O)c1csc(N)n1)C(=O)O`, the MIC50 was 0.125 µg/mL (≈ 0.198 µM) in series [1]; 0.25 µg/mL (≈ 0.395 µM) in [5]; 0.5 µg/mL (≈ 0.79 µM) in [8]; 0.25 µg/mL (≈ 0.395 µM) in [23]; 8 µg/mL (≈ 12.6 µM) in [28]; 0.25 µg/mL (≈ 0.395 µM) in [33]. Further, the MIC50 in [39] was 4 µg/mL (≈ 6.32 µM); in [41], 0.5 µg/mL (≈ 0.79 µM). Besides, the MIC90 was 1 µg/mL (≈ 1.58 µM) in [1]; 1 µg/mL (≈ 1.58 µM) in series [5]; 1 µg/mL (≈ 1.58 µM) in series [8]; 2 µg/mL (≈ 3.16 µM) in series [23]; 1 µg/mL (≈ 1.58 µM) in [25]; > 64 µg/mL in [28]. For the same compound, the figures for the MIC90 in [33], in series [39] and in series [41] were 4 µg/mL (≈ 6.32 µM), 16 µg/mL (≈ 25.3 µM) and 16 µg/mL (≈ 25.3 µM), respectively. Besides, the IC50 in [2] was 54 nM; in series [16], > 300000 nM; in [22], 1670 nM; in series [29], 620 nM. The fraction unbound in series [3] is 0.91; in series [17] it was 1; in [40], 0.91. Besides, the MIC came to 0.25 µg/mL (≈ 0.395 µM) in series [4]; 0.25 µg/mL (≈ 0.395 µM) in series [6]; 0.25 µg/mL (≈ 0.395 µM) in series [7]; 0.25 µg/mL (≈ 0.395 µM) in series [9]; 0.25 µg/mL (≈ 0.395 µM) in series [11]; 8 µg/mL (≈ 12.6 µM) in [12]. Further, the MIC in series [14] worked out at 0.25 µg/mL (≈ 0.395 µM); in series [18], 0.25 µg/mL (≈ 0.395 µM); in series [19], 2 µg/mL (≈ 3.16 µM); in [20] it was 8 µg/mL (≈ 12.6 µM); in series [21] it was 8 µg/mL (≈ 12.6 µM); in [24] it was 0.25 µg/mL (≈ 0.395 µM). In addition, the MIC stood at 32 µg/mL (≈ 50.6 µM) in series [27]; 32 µg/mL (≈ 50.6 µM) in [30]; 0.5 µg/mL (≈ 0.79 µM) in [32]; 0.5 µg/mL (≈ 0.79 µM) in series [34]; 0.25 µg/mL (≈ 0.395 µM) in series [35]; 2 µg/mL (≈ 3.16 µM) in series [36]. Also, the MIC in series [37] was determined as 0.25 µg/mL (≈ 0.395 µM); in series [38] it was 0.06 µg/mL (≈ 0.0948 µM). Further, the results for the Ratio result in [10], in series [13] and in [26] were “>=64”, “>=64” and 32, respectively. This compound also gave a clearance in series [15] of 8.4 mL/min/kg. In series [31], this compound gave a CL of 10 mL/min/kg.
Regarding `CC(C)(O/N=C(\C(=O)N[C@@H]1C(=O)N(S(=O)(=O)O)[C@@H]1CNC(=O)c1cc(=O)c(O)cn1-c1ccccc1)c1csc(N)n1)C(=O)O`, the IC50 is 140 nM in [2], > 300000 nM in series [16], 7400 nM in series [22] and 580 nM in [29]. The MIC in series [6] stood at 32 µg/mL (≈ 48.2 µM); in series [11] it was 1 µg/mL (≈ 1.51 µM); in [19], 16 µg/mL (≈ 24.1 µM); in series [24], 32 µg/mL (≈ 48.2 µM); in series [36], 32 µg/mL (≈ 48.2 µM).
Regarding `CC(C)(O/N=C(\C(=O)N[C@@H]1C(=O)N(S(=O)(=O)O)[C@@H]1CNC(=O)NCc1cc(=O)c(O)cn1O)c1csc(N)n1)C(=O)NO`, the IC50 in series [2] was 270 nM; in [16], > 300000 nM; in [22], 11100 nM; in series [29] it was 3020 nM. In addition, the MIC is 1 µg/mL (≈ 1.54 µM) in series [6]; 8 µg/mL (≈ 12.4 µM) in series [11]; 16 µg/mL (≈ 24.7 µM) in [19]; 1 µg/mL (≈ 1.54 µM) in series [24]; > 64 µg/mL in [36].
Regarding `CC(C)(O/N=C(\C(=O)N[C@@H]1C(=O)N(S(=O)(=O)O)[C@@H]1Cn1cc(COCc2cc(=O)c(O)cn2O)nn1)c1csc(N)n1)C(=O)O`, the results for the fraction unbound in series [3], in [17] and in series [40] were 0.8, 0.5 and 0.6, respectively. Besides, the MIC in series [6] was 0.25 µg/mL (≈ 0.372 µM); in [24] it was 0.25 µg/mL (≈ 0.372 µM); in series [36], 1 µg/mL (≈ 1.49 µM). Moreover, the clearance in [15] is 31.3 mL/min/kg. In series [31], this compound came in with a CL of 94 mL/min/kg.
